Data on two compounds can be found in patent publication US20230065562A1, “DUAL CONTROLS FOR THERAPEUTIC CELL ACTIVATION OR ELIMINATION” (Bellicum Pharmaceuticals, Inc., priority 2015, published 2023).

Common to all, as to type: cell-based, human
The subject of data set [1] is T cells expressing ΔC9 alone (pBP1501). Briefly: T cell killing assay with caspase 3/7 green reagent monitored by IncuCyte, negative control ΔC9. The conditions noted are these: increasing doses, FIG. 108B.
Source text: To determine the functionality of these switches in activated T cells, retroviral supernatants were produced and transduced into PBMCs activated from 3 separate donors.
The subject of data set [2] is iCasp9M-transduced EBV-CTLs. Briefly: CID-induced apoptosis / loss of GFP+ cells in iCasp9M-transduced EBV-CTLs. The method, then: CID (AP20187; ARIAD Pharmaceuticals) at indicated concentrations was added to transfected 293T cells or transduced CTLs. Adherent and nonadherent cells were harvested and washed with annexin binding buffer (BD Pharmingen, San Jose, Calif.). Cells were stained with annexin-V and 7-amino-actinomycin D (7-AAD) for 15 minutes according to the manufacturer's instructions (BD Pharmingen). Within 1 hour after staining, cells were analyzed by flow cytometry using CellQuest software (Becton Dickinson).
Inducible iCasp9M proficiency in CTLs was tested by monitoring loss of GFP-expressing cells after administration of CID; 91.3% (range, 89.5%-92.6% in 5 different donors) of GFP^+ cells were eliminated after a single 10-nM dose of CID. […] In all experiments, CTLs that survived CID treatment had low transgene expression with a 70% (range, 55%-82%) reduction in mean fluorescence intensity of GFP after CID. No further elimination of the surviving GFP^+ T cells could be obtained by an antigenic stimulation followed by a second 10-nM dose of CID. Therefore, the non-responding CTLs most likely expressed insufficient iCasp9M for functional activation by CID. To investigate the correlation between low levels of expression and CTL non-response to CID, CTLs were sorted for low, intermediate, and high expression of the linked marker gene GFP and mixed 1:1 with nontransduced CTLs from the same donor to allow for an accurate quantitation of the number of transduced T cells responding to CID-induced apoptosis.
The number of transduced T cells eliminated increased with the level of GFP transgene expression (see FIGS. 4A, 4B and 4C). To determine the correlation between transgene expression and function of iCasp9M, iCasp9M IRES.GFP-transduced EBV-CTL were selected for low (mean 21), intermediate (mean 80) and high (mean 189) GFP expression. Selected T-cells were incubated overnight with 10 nM CID and subsequently stained with annexin V and 7-AAD. Indicated are the percentages of annexin V+/7-AAD− and annexin V+/7-AAD+ T−. Selected T-cells were mixed 1:1 with non-transduced T-cells and incubated with 10 nM CID following antigenic stimulation. Indicated is the percentage of residual GFP-positive T-cells on day 7.
For GFPhigh-selected cells, 10 nM CID led to deletion of 99.1% (range, 98.7%-99.4%) of transduced cells. On the day of antigen stimulation, F-Casp9M.I.GFP-transduced CTLs were either untreated or treated with 10 nM CID. Seven days later, the response to CID was measured by flow cytometry for GFP. The percentage of transduced T cells was adjusted to 50% to allow for an accurate measurement of residual GFP^+ cells after CID treatment. The responses to CID in unselected (top row of and GFPhigh-selected CTLs (bottom row of was compared. The percentage of residual GFP^+ cells is indicated.
After overnight incubation with 10 nM CID, F-Casp9M.I.GFPhigh-transduced T cells had apoptotic characteristics such as cell shrinkage and fragmentation by microscopic evaluation. […] A representative example of 3 separate experiments is shown.

Data set [3] deals with iCasp9-transduced, CD19-selected allodepleted T cells. Kind of data set: Induction of apoptosis with AP20187 in gene-modified allodepleted T cells (annexin V/7-AAD). The method, then:
Suicide gene functionality was assessed by adding a small molecule synthetic homodimerizer, AP20187 (Ariad Pharmaceuticals; Cambridge, Mass.), at 10 nM final concentration the day following CD19 immunomagnetic selection. Cells were stained with annexin V and 7-amino-actinomycin (7-AAD)(BD Pharmingen) at 24 hours and analyzed by flow cytometry. Cells negative for both annexin V and 7-AAD were considered viable, cells that were annexin V positive were apoptotic, and cells that were both annexin V and 7-AAD positive were necrotic. The percentage killing induced by dimerization was corrected for baseline viability as follows: Percentage killing=100%−(% Viability in AP20187-treated cells÷% Viability in nontreated cells).
Cells were maintained in T cell medium containing 50 U/ml IL-2 until 22 days after transduction. A portion of cells was reactivated on 24-well plates coated with […] OKT3 and 1 µg/ml anti-CD28 (Clone CD28.2, BD Pharmingen, San Jose, Calif.) for 48 to 72 hours. CD19 expression and suicide gene function in both reactivated and non-reactivated cells were measured on day 24 or 25 post transduction.
The day following immunomagnetic selection, 10 nM of the chemical inducer of dimerization, AP20187, was added to induce apoptosis, which appeared within 24 hours. […] Killing efficiency after correction for baseline viability was about 92.9%±3.8%. Large-scale CD19 selection produced cells that were killed with similar efficiency as small-scale selection: mean viability with and without AP20187, and percentage killing, in large and small scale were about 3.9%, about 84.0%, about 95.4% (n=3) and about 6.6%, about 79.3%, about 91.4% (n=5) respectively. AP20187 was non-toxic to non-transduced cells: viability with and without AP20187 was about 86%±9% and 87%±8% respectively (n=6).
To assess the stability of transgene expression and function, cells were maintained in T cell culture medium and low dose IL-2 (50 U/ml) until 24 days after transduction. A portion of cells was then reactivated with OKT3/anti-CD28. CD19 expression was analyzed by flow cytometry 48 to 72 hours later, and suicide gene function was assessed by treatment with 10 nM AP20187. The obtained are for cells from day 5 post transduction (ie, 1 day after CD 19 selection) and day 24 post transduction, with or without 48-72 hours of reactivation (5 experiments). In 2 experiments, CD25 selection was performed after OKT3/αCD28 activation to further enrich activated cells. Error bars represent standard deviation. * indicates p<0.05 when compared to cells from day 5 post transduction. By day 24, surface CD19 expression fell from about 98%±1% to about 88%±4% (p<0.05) with a parallel decrease in mean fluorescence intensity (MFI) from 793±128 to 478±107 (p<0.05) (see FIG. 13B). Similarly, there was a significant reduction in suicide gene function: residual viability was 19.6±5.6% following treatment with AP20187; after correction for baseline viability of 54.8±20.9%, this equated to killing efficiency of only 63.1±6.2%.

Where [4] appears, read: GFPhigh-selected, overnight 10 nM CID, mean.
Where [5] appears, read: representative example of 3 experiments.
Where [6] appears, read: 10 nM AP20187, day after CD19 selection.
[7] abbreviates: day 24 post transduction, non-reactivated.
Setting [8] is: large-scale CD19 selection (n=3).
Setting [9] is: small-scale CD19 selection (n=5).

The structures appear in SMILES notation. Bounds are passed on as bounds.

For the compound `CC[C@H](C(=O)N1CCCC[C@H]1C(=O)O[C@H](CCc1ccc(OC)c(OC)c1)c1cccc(OCC(=O)NCCNC(=O)COc2cccc([C@@H](CCc3ccc(OC)c(OC)c3)OC(=O)[C@@H]3CCCCN3C(=O)[C@@H](CC)c3cc(OC)c(OC)c(OC)c3)c2)c1)c1cc(OC)c(OC)c(OC)c1` [rimiducid], in data set [1], the “activity of negative control ΔC9 alone (pBP1501) in T cells” value is on record as “not active”.
Take `CC[C@H](C(=O)N1CCCC[C@H]1C(=O)O[C@H](CCc1ccc(OC)c(OC)c1)c1cccc(OCC(=O)NCC(CNC(=O)COc2cccc([C@@H](CCc3ccc(OC)c(OC)c3)OC(=O)[C@@H]3CCCCN3C(=O)[C@@H](CC)c3cc(OC)c(OC)c(OC)c3)c2)CN(C)C)c1)c1cc(OC)c(OC)c(OC)c1` [AP20187]: in data set [2] (F-Casp9M.I.GFPhigh, day 7), the “concentration sufficient to obtain the maximal deletion effect” value is recorded as 1 nM. Besides, in data set [2] (GFPhigh-selected cells, 10 nM CID), the “deletion of transduced cells” value stood at 99.1%. In data set [2] (setting [4]), the “apoptotic (annexin-V+/7-AAD−) phenotype” value turned out to be 64% and the “necrotic (annexinV+/7-AAD+) phenotype” value is 30%. In addition, the “reduction in mean fluorescence intensity of GFP in surviving CTLs” value in data set [2] (after CID) was 70%. Further, in data set [2] (setting [5]), the “apoptotic phenotype (annexin V+, 7-AAD−)” value is 64% and the “necrotic phenotype (annexin V+, 7-AAD+)” value was found to be 32%. For the same compound, the “GFP+ cells eliminated” value in data set [2] (single 10-nM dose of CID, unselected CTLs, 5 donors) is 91.3%. Besides, in data set [3] (setting [6]), the “killing efficiency after correction for baseline viability” value is recorded as “about 92.9%±3.8”; the “viable cells (annexin V and 7-AAD negative) at 24 hours” value is “about 5.5%±2.5”. The compound further gave a killing in data set [3] (CD25 negative fraction after reactivation) of 78.6±9.1%. Also, the killing efficiency in data set [3] (OKT3/αCD28-reactivated cells, day 24 or 25) is ~84.6%±8.0. This compound also registered a killing efficiency in data set [3] (day 5 post transduction) of 93.1±3.5%. Besides, in data set [3] (setting [7]), the killing efficiency is recorded as 63.1±6.2% and the “residual viability following AP20187” value came to 19.6±5.6%. The “apoptosis after treatment with dimerizer” value in data set [3] (iCasp9-modified donor T cells) is listed as more than 90%. In data set [3] (setting [8]), the “mean viability with AP20187” value is reported as “about 3.9%” and the percentage killing entry is “about 95.4%”. In data set [3] (setting [9]), the “mean viability with AP20187” value is on record as “about 6.6%” and the percentage killing entry is given as “about 91.4%”.
